The values below come from paper PMC6072853 (Frontiers in Pharmacology, 2018).

In one assay the test system is SiHa. Nature of the assay: MTT antiproliferative assay, SiHa. The note with it: Homo sapiens, 72 h, read-out: Growth inhibition (%) ± SEM. The class given is cell-based, human. The text has this: (§1) Gynecological cancer cell lines, including ovarian (A2780), cervical (HeLa), and breast cancer cell lines (MCF7, T47D, MDA-MB-231, and MDA-MB-361) were purchased from the European Collection of Authenticated Cell Cultures (ECACC, Salisbury, United Kingdom). Additional cervical cell lines (SiHa and C33A) and a non-cancerous immortalized, mammary gland epithelial cell line (hTERT-HME1) were purchased from LGC Standards GmbH (Wesel, Germany). Non-cancerous fibroblast cells (MRC-5) were also obtained from the ECACC. All cells were cultured in minimal essential medium supplemented with 10% fetal bovine serum, 1% non-essential amino acids, and 1% antibiotic-antimycotic mixture, in humidified air containing 5% CO2 at 37°C. Immortalized hTERT-HME1 cells were maintained in serum-free mammary epithelial cell growth medium (MEGM) supplemented with insulin, human epidermal growth factor (hEGF), hydrocortisone, bovine pituitary extract, and an antibiotic-antimycotic mixture. All the medium and supplements were purchased from Lonza Group Ltd. (Basel, Switzerland).
(§2) The antiproliferative properties of the compounds were assessed by an MTT assay ([Mosmann, 1983]). Cells were seeded onto 96-well microplates at a density of 10,000 cells/well (MDA-MB-361 and C33A) or 5,000 cells/well (all other cell lines). After an overnight incubation, fresh medium containing the test compounds (at a concentration of 10 or 30 μM) was added. After incubation for 72 h at 37°C in humidified air, [3-(4,5-dimethylthiazol-2-yl)-2,5-diphenyltetrazolium bromide] (MTT) solution (5 mg/mL) was added. Purple formazan crystals were formed by the living cells during a 4 h contact period, which were assayed by spectrophotometry after having been dissolved in 100 μL DMSO. Untreated cells served as control, and cisplatin (CIS) (Ebewe Pharma GmbH, Unterach, Austria) was used as a reference compound. […] Two independent measurements were performed with five parallel wells. To present preliminary data concerning tumor selectivity of the potent compounds, the procedure was repeated on MRC-5 fibroblast and hTERT-HME1 immortalized mammary gland epithelial cells under the same experimental conditions.
On the technique in general: Tetrazolium dyes change colour on reduction, which living cells bring about.

In another assay the test system is C33A. Nature of the assay: MTT antiproliferative assay, C33A. The note with it: Homo sapiens, C-33-A, 72 h, read-out: Growth inhibition (%) ± SEM. The class given is cell-based, human.
Source text: as §1, §2

The subject of a further assay is A2780. The assay can be described thus: MTT antiproliferative assay, A2780. The note with it: Homo sapiens, 72 h, read-out: Growth inhibition (%) ± SEM; for inhibition at 10 µM: A2780, 10 μM; for inhibition at 30 µM: A2780, 30 μM. The class given is cell-based, human.
Source text: as §1, §2

A further assay has as its system T47D. Nature of the assay: MTT antiproliferative assay, T47D. The class given is cell-based, human. The note with it: Homo sapiens, 72 h, read-out: Growth inhibition (%) ± SEM.
Source text: as §1, §2

The next assay concerns MRC-5. The assay can be described thus: MTT assay, non-cancerous fibroblasts MRC-5. The class given is cell-based, human. The note with it: Homo sapiens, MRC5, 72 h, read-out: Growth inhibition (%) ± SEM; for inhibition at 10 µM: MRC-5, 10 μM; for inhibition at 30 µM: MRC-5, 30 μM.
Source text: as §1, §2

For assay [1], the system named is HeLa cells. The assay can be described thus: Lactate dehydrogenase (LDH) cytotoxicity assay. It counts as cell-based, human. The note with it: 24 h. How it is done:
The direct cytotoxic effects of the test agents were determined by a lactate dehydrogenase (LDH) assay. Cells were seeded onto 96-well microplates at a density of 5,000 cells/well and were incubated overnight, after which the medium containing the test compounds at proper concentrations was added. After incubation for 24 h, the activity of LDH released by the treated cells was determined by a commercially available colorimetric kit according to the manufacturer’s instructions (Hoffmann-La Roche Ltd., Basel, Switzerland). Untreated cells served as control, while detergent Triton X-100 and CIS were used as reference agents.

The test system of assay [2] is HeLa cells. Nature of the assay: Fluorescent double staining (Hoechst 33258 / propidium iodide) morphology. The class given is cell-based, human. The note with it: 24 h, 1.0, 3.0 or 5.0 μM. How it is done: Fluorescent double staining was performed in order to detect apoptosis induction and morphological changes using fluorescent microscopy. HeLa cells were seeded into a 96-well plate at the density of 3,000Ȓ5,000 cells per well. After an overnight incubation, the cells were treated with various concentrations of the test compounds for 24 h. The treated cells were then incubated with a fluorescent staining solution (containing Hoechst 33258 and propidium iodide, 500 and 300 μg/mL, respectively) for an hour. After staining, the cells were analyzed using a fluorescent microscope (Nikon ECLIPSE 146 TS100, Nikon Instruments Europe, Amstelveen, Netherlands) equipped with appropriate optical filters. For all different conditions, at least six fields were recorded with an attached QCapture CCD camera. This way cells with an intact, apoptotic or necrotic morphology can be distinguished based on their different nuclear morphological appearance and distinct membrane integrity.

The next assay concerns caspase-3. Nature of the assay: Caspase-3 activity colorimetric assay. It counts as cell-based, human. The note with it: HeLa. How it is done: (§3) In order to detect, whether the test compounds induce programmed cell death, the activity of caspase-3 was determined by a colorimetric assay. To elucidate the exact pathway of apoptosis, activities of caspase-8 and caspase-9 were additionally determined by colorimetric kits. In all cases approximately 12 million cells were treated with appropriate concentrations of the compounds for 24 or 72 h. After the treatment, the cells were scraped and the enzyme activities were determined by means of colorimetric assays mentioned above. All kits were purchased from Abnova Corp. (Taipei, Taiwan) and used in accordance with the instructions of the manufacturer.

The test system of a further assay is caspase-8. The assay can be described thus: Caspase-8 activity colorimetric assay. It counts as cell-based, human. The note with it: HeLa. How it is done: as §3
Another assay relates to caspase-9. Nature of the assay: Caspase-9 activity colorimetric assay. The class given is cell-based, human. The note with it: HeLa. How it is done: as §3
A further assay deals with tubulin. Nature of the assay: Tubulin polymerization assay (cell-free). The class given is biochemical. The note with it: cell-free system, compared to untreated control. How it is done:
In order to determine the direct action of the test compounds on the microtubular system, an in vitro tubulin polymerization assay was performed using a commercially available kit (Cytoskeleton Inc., Denver, CO, United States) in accordance with the provider’s instructions. The assay reactions were performed on a pre-warmed (37°C), UV-transparent 96-well microplate. Ten microliters of the test solutions were placed on the wells supplemented with 2 mM MgCl2, 0.5 mM ethylene glycol tetraacetic acid (EGTA), 1 mM guanosine triphosphate (GTP) and 10.2% glycerol. Ten microliters of general tubulin buffer was used as untreated control, and paclitaxel (PAC) served as the reference compound. The polymerization reaction was initiated by adding 100 μL of 3.0 mg/mL tubulin in 80 mM PIPES, pH 6.9, to each sample. Absorbance of the samples was measured per minute, at 340 nm, using a 60-min kinetic measurement protocol. Each sample was prepared in two parallels. To characterize the process, polymerization curves were fitted to the measured data. The highest difference between the absorbances measured at two consecutive time points was regarded as Vmax (Δabsorbance/min) for the tested compound. A clinically applied reference agent, PAC was used at a relatively high concentration (10 μM) as recommended by the manufacturer. […]. […]

In the case of `C[C@]12CC[C@H]3[C@@H](CCC4=CC(=O)CC[C@@H]43)[C@@H]1CC[C@H]2Cl` [Compound 3], the inhibition (in general, the change of the read-out against control, counted positive when it falls) at 10 µM in the assay with SiHa was less than 20%; in the assay with C33A, less than 20%; in the assay with A2780 it was less than 20%; in the assay on T47D it was less than 20%; in the assay on MRC-5, 4.3 ± 3.7%. For the same molecule, the inhibition at 30 µM with SiHa is 26 ± 2.3%; in the assay on C33A it was 61.7 ± 1.7%; with A2780, 32.7 ± 1%; in the assay on T47D it was less than 20%; in the assay with MRC-5 it was 8 ± 2.3%. Moreover, the LDH release entry in the assay with HeLa cells [1] (3.0 or 5.0 μM) is given as “significant”. In the assay on HeLa cells [2], the “apoptotic and necrotic cell populations (morphology)” value is “substantial and concentration-dependent increase in both the apoptotic and necrotic cell populations”. Also, the caspase-3 activity result in the assay on caspase-3 (24 h, 5.0 μM) was “enhanced caspase-3 activity”. Further, the caspase-8 activity entry in the assay with caspase-8 (24 h) is “no change”. Also, in the assay with caspase-9 (24 h), the caspase-9 activity result is given as “significantly elevated”. The “effect on tubulin polymerization” value in the assay with tubulin is on record as “significant acceleration of tubulin polymerization”.

Regarding `C[C@]12CC[C@H]3[C@@H](CCC4=CC(=O)CC[C@@H]43)[C@@H]1CC[C@@H]2O` [Compound 1, 19-nortestosterone, reference compound], the inhibition at 10 µM with SiHa is less than 20%; with C33A, less than 20%; in the assay with A2780, less than 20%; in the assay on T47D, less than 20%; in the assay with MRC-5, 5.4 ± 1.2%. The inhibition at 30 µM is 20.7 ± 2.6% in the assay on SiHa; 25.2 ± 1.7% in the assay with C33A; less than 20% in the assay on A2780; less than 20% with T47D; 11.3 ± 0.5% in the assay with MRC-5. The LDH release result in the assay with HeLa cells [1] (1.5 μM) is given as “substantial LDH release”. In the assay with HeLa cells [2], the “apoptotic and necrotic cell populations (morphology)” value was “substantial and concentration-dependent increase in both the apoptotic and necrotic cell populations”. In the assay with caspase-3 (72 h), the caspase-3 activity entry was “increased significantly”. Further, the caspase-8 activity result in the assay with caspase-8 (72 h) was “less pronounced”. Moreover, the caspase-9 activity result in the assay on caspase-9 (72 h) is recorded as “activated the initiator caspases”. The “effect on tubulin polymerization” value with tubulin was “significant acceleration of tubulin polymerization”.
